Measured values taken from ChEMBL document CHEMBL5528039, “Discovery of a Macrocyclic Influenza Cap-Dependent Endonuclease Inhibitor” (J Med Chem, 2024).
The source made the active and inactive calls. The rule behind the calls is not given here.

What was measured:
[1] = Prodrug conversion in Beagle dog assessed as (7aS,16R)-2,3-difluoro-10-hydroxy-8-methyl-16-phenyl-6,7,7a,8-tetrahydro-16H-benzo[b]pyrido[1',2':1,6][1,2,4]triazino[2,3-e][1,5]oxazocine-9,11-dione half-life at 1 mg/kg, po measured after 24 hrs by LC-MS/MS analysis; type: ADME, organism-based, Canis lupus familiaris; details: in vivo
[2] = Prodrug conversion in Beagle dog assessed as (7aS,16R)-2,3-difluoro-10-hydroxy-8-methyl-16-phenyl-6,7,7a,8-tetrahydro-16H-benzo[b]pyrido[1',2':1,6][1,2,4]triazino[2,3-e][1,5]oxazocine-9,11-dione AUC (0 to last) at 1 mg/kg, po measured after 24 hrs by LC-MS/MS analysis; type: ADME, organism-based, Canis lupus familiaris; details: in vivo
[3] = Prodrug conversion in cynomolgus monkey assessed as (7aS,16R)-2,3-difluoro-10-hydroxy-8-methyl-16-phenyl-6,7,7a,8-tetrahydro-16H-benzo[b]pyrido[1',2':1,6][1,2,4]triazino[2,3-e][1,5]oxazocine-9,11-dione AUC (0 to last) at 1 mg/kg, po measured after 24 hrs by LC-MS/MS analysis; type: ADME, organism-based, Macaca fascicularis; details: in vivo
[4] = Prodrug conversion in BALB/c mouse assessed as (7aS,16R)-2,3-difluoro-10-hydroxy-8-methyl-16-phenyl-6,7,7a,8-tetrahydro-16H-benzo[b]pyrido[1',2':1,6][1,2,4]triazino[2,3-e][1,5]oxazocine-9,11-dione half-life at 10 mg/kg, po measured after 24 hrs by LC-MS/MS analysis; type: ADME, organism-based; details: in vivo
Influenza B virus [5] = assay: Antiviral activity against Influenza B virus B/Lee/40 infected in BALB/c mouse assessed as reduction in body weight loss at 0.5 to 5 mg/kg, po pre-infected with virus for 24 hrs followed by twice daily compound administration from day 1 to 7 and measured on day 14; type: functional, organism-based; details: dose 0.5-5 mg/kg, time 14.0 day
[6] = Prodrug conversion in Beagle dog assessed as (7aS,16R)-2,3-difluoro-10-hydroxy-8-methyl-16-phenyl-6,7,7a,8-tetrahydro-16H-benzo[b]pyrido[1',2':1,6][1,2,4]triazino[2,3-e][1,5]oxazocine-9,11-dione Cmax at 1 mg/kg, po measured after 24 hrs by LC-MS/MS analysis; type: ADME, organism-based, Canis lupus familiaris; details: in vivo
[7] = (§1) Prodrug conversion in BALB/c mouse infected with Influenza B virus B/Lee/40 assessed as (7aS,16R)-2,3-difluoro-10-hydroxy-8-methyl-16-phenyl-6,7,7a,8-tetrahydro-16H-benzo[b]pyrido[1',2':1,6][1,2,4]triazino[2,3-e][1,5]oxazocine-9,11-dione formation at 0.5 to 5 mg/kg, po pre-infected with virus for 24 hrs followed by twice daily compound administration from day 1 to 7 and measured on day 14 by LC-MS/MS analysis; type: ADME, organism-based; details: in vivo, 336 h, dose 0.5-5 mg/kg, time 14 day
[8] = Prodrug conversion in BALB/c mouse assessed as (7aS,16R)-2,3-difluoro-10-hydroxy-8-methyl-16-phenyl-6,7,7a,8-tetrahydro-16H-benzo[b]pyrido[1',2':1,6][1,2,4]triazino[2,3-e][1,5]oxazocine-9,11-dione AUC (0 to last) at 10 mg/kg, po measured after 24 hrs by LC-MS/MS analysis; type: ADME, organism-based; details: in vivo
Influenza B virus [9] = assay: Antiviral activity against Influenza B virus B/Lee/40 infected in BALB/c mouse assessed as reduction in improvement in survival rate at 0.5 to 5 mg/kg, po pre-infected with virus for 24 hrs followed by twice daily compound administration from day 1 to 7 and measured on day 14; type: functional, organism-based; details: dose 0.5-5 mg/kg, time 14.0 day
[10] = as §1, with “formation by measuring Ctau” for “formation”, “at” for “at 0.5 to”; type: ADME, organism-based; details: in vivo, 336 h, time 14 day
[11] = Prodrug conversion in cynomolgus monkey assessed as (7aS,16R)-2,3-difluoro-10-hydroxy-8-methyl-16-phenyl-6,7,7a,8-tetrahydro-16H-benzo[b]pyrido[1',2':1,6][1,2,4]triazino[2,3-e][1,5]oxazocine-9,11-dione Cmax at 1 mg/kg, po measured after 24 hrs by LC-MS/MS analysis; type: ADME, organism-based, Macaca fascicularis; details: in vivo
Influenza A virus [12] = assay: Antiviral activity against Influenza A virus A/PR/8/34 infected in BALB/c mouse assessed as reduction in body weight loss at 5 to 30 mg/kg, po pre-infected with virus for 48 hrs followed by twice daily compound administration starting from day 2 and measured on day 5; type: functional, organism-based; details: dose 5-30 mg/kg, time 72.0 hrs
[13] = Prodrug conversion in cynomolgus monkey assessed as (7aS,16R)-2,3-difluoro-10-hydroxy-8-methyl-16-phenyl-6,7,7a,8-tetrahydro-16H-benzo[b]pyrido[1',2':1,6][1,2,4]triazino[2,3-e][1,5]oxazocine-9,11-dione half-life at 1 mg/kg, po measured after 24 hrs by LC-MS/MS analysis; type: ADME, organism-based, Macaca fascicularis; details: in vivo
Influenza A virus [14] = assay: Antiviral activity against Influenza A virus A/PR/8/34 infected in BALB/c mouse assessed as reduction in viral load in lungs at 5 to 30 mg/kg, po pre-infected with virus for 48 hrs followed by twice daily compound administration starting from day 2 and measured 1 hrs after last dose on day 5 by crystal violet staining based analysis; type: functional, organism-based; details: dose 5-30 mg/kg, time 73.0 hrs
[15] = Prodrug conversion in BALB/c mouse assessed as (7aS,16R)-2,3-difluoro-10-hydroxy-8-methyl-16-phenyl-6,7,7a,8-tetrahydro-16H-benzo[b]pyrido[1',2':1,6][1,2,4]triazino[2,3-e][1,5]oxazocine-9,11-dione Cmax at 10 mg/kg, po measured after 24 hrs by LC-MS/MS analysis; type: ADME, organism-based; details: in vivo

SMILES: COC(=O)OCOc1c2n(ccc1=O)N1[C@H](c3ccccc3)c3cc(F)c(F)cc3OCC[C@H]1N(C)C2=O
- t1/2 [1]: 4.4 h
- AUClast [2]: 0.724 µM·h
- AUClast [3]: 0.785 µM·h
- t1/2 [4]: 1.3 h
- Activity (Influenza B virus [5]): Active
- Cmax [6]: 171 nM
- Drug metabolism [7]: Metabolite_Detected
- AUClast [8]: 0.93 µM·h
- Activity (Influenza B virus [9]): Active
- Ctau [10]: > 16 nM
- Cmax [11]: 163 nM
- Activity (Influenza A virus [12]): Active
- t1/2 [13]: 3.6 h
- Activity (Influenza A virus [14]): Active
- Cmax [15]: 309 nM
